# Results: ChEMBL document CHEMBL6092191, “Advancing Cancer Immunotherapy through Engineering New PD-L1 Degraders: A Comprehensive Study from Small Molecules to PD-L1-Specific Peptide-Drug Conjugates” (J Med Chem, 2024)
# Activity calls are given as the source filed them. The rule behind the calls is not given here.
# Experiments:
# [1] = Drug uptake in human PC-9 cells at 10 uM by fluorescence microscopy; format: ADME, cell-based; settings: pc-9, 10 µM
# [2] = target: COP9 signalosome complex subunit 5 (Homo sapiens) (UniProt Q92905); assay: Induction of PD-L1 degradation in human NCI-H460 cells at 10 uM incubated for 24 hrs by Western blot analysis; format: cell-based
# [3] = target: COP9 signalosome complex subunit 5 (Homo sapiens) (UniProt Q92905); assay: Induction of PD-L1 degradation in human PC-9 cells incubated for 24 hrs by Western blot analysis; format: cell-based; settings: dose <= 100.0 µM
# [4] = target: COP9 signalosome complex subunit 5 (Homo sapiens) (UniProt Q92905); assay: Induction of PD-L1 degradation in […] cells incubated for 24 hrs by Western blot analysis; format: cell-based; settings: Lewis lung carcinoma cell line, dose <= 100.0 µM
# [5] = target: COP9 signalosome complex subunit 5 (Homo sapiens) (UniProt Q92905); assay: Induction of PD-L1 degradation in human PC-9 cells at 10 uM by Western blot analysis; format: cell-based; settings: time <= 36.0 hrs
# [6] = target: COP9 signalosome complex subunit 5 (Homo sapiens) (UniProt Q92905); assay: Induction of IFN-gamma-induced PD-L1 degradation in human A549 cells at 10 uM incubated for 24 hrs by Western blot analysis; format: cell-based
# [7] = target: COP9 signalosome complex subunit 5 (Homo sapiens) (UniProt Q92905); assay: Induction of IFN-gamma-induced PD-L1 degradation in human NCI-H1299 cells at 10 uM incubated for 24 hrs by Western blot analysis; format: cell-based
# [8] = tested on: Lewis lung carcinoma cell line; assay: Anticancer activity against Lewis lung carcinoma cells measured after 3 days by MTT assay; format: functional, cell-based; settings: Mus musculus, 72 h
# NCI-H460 [9] = assay: Antiproliferative activity against human NCI-H460 cells at 10 uM measured after 4 days by MTT assay; format: functional, cell-based; settings: time 4.0 day
# PC-9 [10] = assay: Antiproliferative activity against human PC-9 cells at 10 uM measured after 4 days by MTT assay; format: functional, cell-based; settings: time 4.0 day
# [11] = tested on: Lewis lung carcinoma cell line; assay: Antiproliferative activity against Lewis lung carcinoma cells at 10 uM measured after 4 days by MTT assay; format: functional, cell-based; settings: Mus musculus, time 4.0 day
# NCI-H460 [12] = assay: Inhibition of cell survival of human NCI-H460 cells co-cultivated with activated T cells at 10 uM incubated for 2 days by crystal violet staining based analysis; format: functional; settings: time 2.0 day
# Mus musculus = assay: In vivo induction of PD-L1 degradation in […] lung carcinoma cells xenografted in C57BL/6 mouse model at 10 mg/kg, ip administered daily for 10 days by IHC analysis; format: functional, organism-based; settings: time 10.0 day
# [13] = tested on: Lewis lung carcinoma cell line; assay: Antitumor T-cell immune response in Lewis lung carcinoma cells xenografted in C57BL/6 mouse model assessed as increase in ratio of CD8+ to CD4+ T cells in tumor at 10 mg/kg, ip administered daily for 10 days by flow cytometry; format: functional, organism-based; settings: time 10.0 day
# [14] = tested on: Lewis lung carcinoma cell line; assay: Antitumor T-cell immune response in Lewis lung carcinoma cells xenografted in C57BL/6 mouse model assessed as increase in IFN-gamma level in tumor at 10 mg/kg, ip administered daily for 10 days by ELISA; format: functional, organism-based; settings: time 10.0 day
# [15] = tested on: Lewis lung carcinoma cell line; assay: Antitumor T-cell immune response in Lewis lung carcinoma cells xenografted in C57BL/6 mouse model assessed as increase in TNF-alpha level in tumor at 10 mg/kg, ip administered daily for 10 days by ELISA; format: functional, organism-based; settings: time 10.0 day
# [16] = tested on: Lewis lung carcinoma cell line; assay: Antitumor T-cell immune response in Lewis lung carcinoma cells xenografted in C57BL/6 mouse model assessed as increase in GrB level in tumor at 10 mg/kg, ip administered daily for 10 days by ELISA; format: functional, organism-based; settings: time 10.0 day
# [17] = Toxicity in C57BL/6 mouse model xenografted with […] cells assessed as body weight loss at 10 mg/kg, ip administered daily for 10 days; format: organism-based; settings: in vivo, 240 h, time 10 day
# [18] = Toxicity in C57BL/6 mouse model xenografted with […] cells assessed as obvious damage in heart at 10 mg/kg, ip administered daily for 10 days by H and E staining based analysis; format: organism-based; settings: in vivo, 240 h, time 10 day
# [19] = Toxicity in C57BL/6 mouse model xenografted with […] cells assessed as obvious damage in liver at 10 mg/kg, ip administered daily for 10 days by H and E staining based analysis; format: organism-based; settings: in vivo, 240 h, time 10 day
# [20] = Toxicity in C57BL/6 mouse model xenografted with […] cells assessed as obvious damage in lung at 10 mg/kg, ip administered daily for 10 days by H and E staining based analysis; format: organism-based; settings: in vivo, 240 h, time 10 day
# [21] = Toxicity in C57BL/6 mouse model xenografted with […] cells assessed as obvious damage in kidney at 10 mg/kg, ip administered daily for 10 days by H and E staining based analysis; format: organism-based; settings: in vivo, 240 h, time 10 day
# [22] = Toxicity in C57BL/6 mouse model xenografted with […] cells assessed as change in ALT level at 10 mg/kg, ip administered daily for 10 days; format: organism-based, Blood; settings: in vivo, 240 h, time 10 day
# [23] = Toxicity in C57BL/6 mouse model xenografted with […] cells assessed as change in AST level at 10 mg/kg, ip administered daily for 10 days; format: organism-based, Blood; settings: in vivo, 240 h, time 10 day
# [24] = Toxicity in C57BL/6 mouse model xenografted with […] cells assessed as change in serum creatinine level at 10 mg/kg, ip administered daily for 10 days; format: organism-based; settings: in vivo, 240 h, time 10 day
# [25] = Toxicity in C57BL/6 mouse model xenografted with […] cells assessed as change in BUN level at 10 mg/kg, ip administered daily for 10 days; format: organism-based, Blood; settings: in vivo, 240 h, time 10 day
# PC-9 [26] = assay: Effect on PD-L1 mRNA level in human PC-9 cells at 10 uM incubated for 24 hrs by qRT-PCR analysis; format: functional, cell-based
# A549 = assay: Effect on IFN-gamma-induced PD-L1 mRNA expression in human A549 cells at 10 uM by qRT-PCR analysis; format: functional, cell-based
# HCC827 = assay: Effect on IFN-gamma-induced PD-L1 mRNA expression in human HCC827 cells at 10 uM by qRT-PCR analysis; format: functional, cell-based
# NCI-H1299 = assay: Effect on IFN-gamma-induced PD-L1 mRNA expression in human NCI-H1299 cells at 10 uM by qRT-PCR analysis; format: functional, cell-based
# [27] = target: COP9 signalosome complex subunit 5 (Homo sapiens) (UniProt Q92905); assay: Induction of PD-L1 degradation in human NCI-H460 cells upto 40 uM in presence of chloroquine by Western blot analysis; format: cell-based
# [28] = target: COP9 signalosome complex subunit 5 (Homo sapiens) (UniProt Q92905); assay: Induction of PD-L1 degradation in human NCI-H460 cells upto 20 uM in presence of MG132 by Western blot analysis; format: cell-based
# [29] = target: COP9 signalosome complex subunit 5 (Homo sapiens) (UniProt Q92905); assay: Induction of PD-L1 degradation in human NCI-H460 cells assessed as PD-L1 ubiquitination by Western blot analysis; format: cell-based
# [30] = target: COP9 signalosome complex subunit 5 (Homo sapiens) (UniProt Q92905); assay: Binding affinity to CSN5 in NCI-H460 cell lysate by Western blot analysis; format: subcellular
# HEK-293T = assay: Antiproliferative activity against HEK293T cells at 10 uM incubated for 4 days; format: toxicity, cell-based; settings: human, 96 h, time 4 day
# 3T3-L1 = assay: Antiproliferative activity against mouse 3T3-L1 cells at 10 uM incubated for 4 days; format: toxicity, cell-based; settings: 3t3-l1, 96 h, time 4 day
# [31] = Antiproliferative activity against human HTori-3 cells at 10 uM incubated for 4 days; format: toxicity, cell-based; settings: htori-3, 96 h, time 4 day
# [32] = tested on: Lewis lung carcinoma cell line; assay: Antitumor activity against Lewis lung carcinoma cells xenografted in C57BL/6 mouse model at 5 mg/kg, ip administered daily for 8 days relative to control; format: functional; settings: 192 h, time 8 day, read-out: TGI
# [33] = tested on: Lewis lung carcinoma cell line; assay: Antitumor T-cell immune response in Lewis lung carcinoma cells xenografted in C57BL/6 mouse model assessed as increase in ratio of CD8+ to CD4+ T cells in tumor at 5 mg/kg, ip administered daily for 8 days by flow cytometry; format: functional, organism-based; settings: time 8.0 day
# Sequence of COP9 signalosome complex subunit 5 (Homo sapiens) (Q92905 2-334 limits assumed, one chain of several): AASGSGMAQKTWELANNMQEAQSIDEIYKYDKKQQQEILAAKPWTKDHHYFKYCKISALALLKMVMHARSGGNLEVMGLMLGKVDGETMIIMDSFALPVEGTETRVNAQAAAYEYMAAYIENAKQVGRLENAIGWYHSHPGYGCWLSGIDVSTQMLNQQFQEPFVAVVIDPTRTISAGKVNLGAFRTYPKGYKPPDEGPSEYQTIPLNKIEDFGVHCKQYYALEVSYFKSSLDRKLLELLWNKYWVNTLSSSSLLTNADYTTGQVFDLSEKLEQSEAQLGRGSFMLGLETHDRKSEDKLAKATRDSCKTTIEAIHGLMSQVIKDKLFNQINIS
structure (smiles),measurement,setting,value
COc1cc2c(cc1OC)-c1cc3ccc(OC)c(OCCN)c3c[n+]1CC2.[Cl-],Drug uptake,[1],Time-dependent-effect
same,Activity,[2],Active; Most Effective Compound Among Pmt-O9 Derivatives
same,Activity,[3],Dose-dependent-effect
same,Activity,[4],Dose-dependent-effect
same,Activity,[5],Time-dependent-effect
same,Activity,[6],Active
same,Activity,[7],Active
same,IC50,[8],122 µM
same,Activity,NCI-H460 [9],inactive
same,Activity,PC-9 [10],inactive
same,Activity,[11],inactive
same,inhibition,NCI-H460 [12],Active
same,Activity,Mus musculus,Active
same,Activity,[13],Active; Highest Enhancement Of Ratio Observed
same,Activity,[14],Active
same,Activity,[15],Active
same,Activity,[16],Active
same,Activity,[17],Non-toxic
same,Activity,[18],Non-toxic
same,Activity,[19],Non-toxic
same,Activity,[20],Non-toxic
same,Activity,[21],Non-toxic
same,Activity,[22],Non-toxic
same,Activity,[23],Non-toxic
same,Activity,[24],Non-toxic
same,Activity,[25],Non-toxic
same,Activity,PC-9 [26],inactive
same,Activity,A549,inactive
same,Activity,HCC827,inactive
same,Activity,NCI-H1299,inactive
same,Activity,[27],Active
same,Activity,[28],inactive
same,Activity,[29],Active
same,Activity,[30],Active
same,Activity,HEK-293T,Non-toxic
same,Activity,3T3-L1,Non-toxic
same,Activity,[31],Non-toxic
same,inhibition in vivo at 5 mg/kg,[32],66%
same,Activity,[33],Active
